Measured values: ChEMBL document CHEMBL1148408, “Inhibitors of serine proteases as potential therapeutic agents: the road from thrombin to tryptase to cathepsin G” (J Med Chem, 2004)

tested on: not listed separately; test: Oral bioavailability; type: ADME, organism-based; conditions: eutheria, in vivo

SMILES	bioavailability [%]
CN[C@H](Cc1ccccc1)C(=O)N1CCC[C@H]1C(=O)N[C@@H](CCCN=C(N)N)C(=O)c1nc2ccccc2s1	1
CN[C@H](Cc1ccccc1)C(=O)N1CCC[C@H]1C(=O)N[C@@H](CCCNC(=N)N)C(=O)c1nc2ccc(C(=O)O)cc2s1	3

target: T1, Cathepsin G (Homo sapiens, UniProt P08311); test: Inhibitory activity against human Cathepsin G; conditions: not given
T1 sequence (P08311 whole entry): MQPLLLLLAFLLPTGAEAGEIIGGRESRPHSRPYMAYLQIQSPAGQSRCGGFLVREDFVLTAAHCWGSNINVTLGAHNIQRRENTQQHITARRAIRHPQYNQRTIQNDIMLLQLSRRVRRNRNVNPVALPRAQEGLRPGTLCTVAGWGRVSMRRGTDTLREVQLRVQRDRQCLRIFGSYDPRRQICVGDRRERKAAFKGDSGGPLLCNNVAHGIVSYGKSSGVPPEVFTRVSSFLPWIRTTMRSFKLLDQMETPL

IC50 [nM]	SMILES
1000	CN(Cc1ccccc1)C(=O)c1cc2ccccc2cc1C(=O)C(c1cccc2ccccc12)P(=O)(O)O (stereo not drawn)
4100	O=C(c1ccc2ccccc2c1)C(c1cccc2ccccc12)P(=O)(O)O (stereo not drawn)
500	CN(CC(=O)NCC(c1ccccc1)c1ccccc1)C(=O)c1cc2ccccc2cc1C(=O)C(c1cccc2ccccc12)P(=O)(O)O (stereo not drawn)
1300	CN(CC(=O)NCCc1ccccc1)C(=O)c1cc2ccccc2cc1C(=O)C(c1cccc2ccccc12)P(=O)(O)O (stereo not drawn)

target: T2, Cathepsin G (Homo sapiens) (UniProt P08311); test: Inhibitory activity against human Cathepsin G at 100 uM; Not active; conditions: not given
T2 sequence (whole entry): T1 sequence (P08311 whole entry)

inhibition [%]	SMILES
< 50	O=C(Cc1ccc2ccccc2c1)C(c1cccc2ccccc12)P(=O)(O)O (stereo not drawn)
< 50	O=P(O)(O)C(c1cccc2ccccc12)S(=O)(=O)c1ccc2ccccc2c1 (stereo not drawn)
< 50	O=C(c1cccc2ccccc12)C(c1cccc2ccccc12)P(=O)(O)O (stereo not drawn)
< 50	O=P(O)(O)C(Cc1ccc2ccccc2c1)c1cccc2ccccc12 (stereo not drawn)
< 50	O=C(c1ccc2ccccc2c1)C(c1ccccc1)P(=O)(O)O (stereo not drawn)
< 50	O=P(O)(O)C(c1cccc2ccccc12)C(O)c1ccc2ccccc2c1 (stereo not drawn)
< 50	O=C(c1ccc2ccccc2c1)C(c1ccc2ccccc2c1)P(=O)(O)O (stereo not drawn)
< 50	CC(C(=O)c1ccc2ccccc2c1)(c1cccc2ccccc12)P(=O)(O)O (stereo not drawn)

tested on: Canis familiaris; test: In vivo antithrombotic activity using canine thrombosis model; type: functional; conditions: Canis lupus familiaris

SMILES	ED50 [mg/kg]
CN[C@H](Cc1ccccc1)C(=O)N1CCC[C@H]1C(=O)N[C@@H](CCCNC(=N)N)C(=O)c1nc2ccc(C(=O)O)cc2s1	0.47

tested on: Oryctolagus cuniculus; test: In vivo antithrombotic activity using rabbit thrombosis model; type: functional; conditions: not given

SMILES	ED50 [mg/kg]
CN[C@H](Cc1ccccc1)C(=O)N1CCC[C@H]1C(=O)N[C@@H](CCCN=C(N)N)C(=O)c1nc2ccccc2s1	0.29
CN[C@H](Cc1ccccc1)C(=O)N1CCC[C@H]1C(=O)N[C@@H](CCCNC(=N)N)C(=O)c1nc2ccc(C(=O)O)cc2s1	0.3
CN[C@H](Cc1ccccc1)C(=O)N1CCC[C@H]1C(=O)N[C@H](C=O)CCCNC(=N)N	0.13

target: T3, Prothrombin (Homo sapiens, UniProt P00734); test: Binding activity against human alpha thrombin; conditions: not given

IC50 [nM]	SMILES
4.5	CN[C@@H](C(=O)N1CCC[C@H]1C(=O)N[C@@H](CCCN=C(N)N)C(=O)c1nc2ccccc2s1)C(c1ccccc1)c1ccccc1

target: T3, Prothrombin; test: Binding affinity to human thrombin; conditions: not given

Ki [nM]	SMILES
3.1	N=C(N)NCCC[C@@H]1NC(=O)C2CCCN2C(=O)[C@@H](NC(=O)Cc2ccccc2)CNC(=O)/C=C/[C@H](Cc2ccc(O)cc2)NC(=O)[C@@H](Cc2ccccc2)NC(=O)C1=O (stereo partly drawn)
200	CN[C@H](Cc1ccccc1)C(=O)N1CCC[C@H]1C(=O)N[C@@H](CCCN=C(N)N)C(=O)c1nccn1C
0.00065	CN[C@@H](C(=O)N1CCC[C@H]1C(=O)N[C@@H](CCCN=C(N)N)C(=O)c1nc2ccccc2s1)C(c1ccccc1)c1ccccc1
1.5	N=C(N)NCCC[C@@H]1NC(=O)C2CCCN2C(=O)[C@@H](NCCc2ccccc2)CNC(=O)/C=C/[C@H](Cc2ccc(O)cc2)NC(=O)[C@@H](Cc2ccccc2)NC(=O)C1=O (stereo partly drawn)
9.6	CN[C@H](Cc1ccccc1)C(=O)N1CCC[C@H]1C(=O)N[C@@H](CCCNC(=N)N)C(=O)c1nc2ccccc2[nH]1
260	N=C(N)NCCC[C@@H]1NC(=O)[C@@H]2CCCN2C(=O)[C@@H](NC=O)NC(=O)CCCCCCNC(=O)C1=O
4.1	N=C(N)NCCC[C@@H]1NC(=O)C2CCCN2C(=O)[C@@H](NC=O)CNC(=O)/C=C/[C@H](Cc2ccc(O)cc2)NC(=O)[C@@H](Cc2ccccc2)NC(=O)C1=O (stereo partly drawn)
6.2	CN[C@H](Cc1ccccc1)C(=O)N1CCC[C@H]1C(=O)N[C@@H](CCCN=C(N)N)C(=O)c1nc2ccccc2o1
2.1	CN[C@H](Cc1ccccc1)C(=O)N1CCC[C@H]1C(=O)N[C@@H](CCCNC(=N)N)C(=O)c1nccs1
15	CN[C@H](Cc1ccccc1)C(=O)N1CCC[C@H]1C(=O)N[C@@H](CCCN=C(N)N)C(=O)c1nc(O)c2ccccc2n1

SMILES	Ki [nM]
CN[C@H](Cc1ccccc1)C(=O)N1CCC[C@H]1C(=O)N[C@@H](CCCN=C(N)N)C(=O)c1nc2ccccc2s1	0.2
N=C(N)NCCC[C@@H]1NC(=O)C2CCCN2C(=O)[C@@H](Cc2ccccc2)NC(=O)CCCCCCCNC(=O)C1=O (stereo partly drawn)	24

target: Tryptase (Homo sapiens, UniProt Q9BZJ3+Q15661+Q9NRR2); test: Binding affinity against human alpha tryptase; type: protein assay; conditions: not given

Ki [nM]	SMILES
10	CC(=O)N1C[C@H](O)C[C@H]1C(=O)N[C@@H](CCCN=C(N)N)C(=O)c1nc2ccccc2s1
88	N=C(N)NCCC[C@H](NC(=O)C1CCCC1)C(=O)c1nc2ccccc2s1
